Legend:
[1] = system: mice administered with beta-amyloid; assay: passive avoidance test in mice given beta-amyloid into the cerebral ventricle; format: in vivo, mouse; settings: group C (dimer and beta-amyloid) compared with group B (beta-amyloid (1–42) only); 24 h after training; maximum 300 seconds; FIG. 1
Procedure: Four groups of 10 mice aged 4–5 weeks, weighing 20–25 g, were administered with samples dissolved in 1% DMSO and 1% CMC using Sonde once per 1 day(samples: A-reverse phase betaamyloid, B-betaamyloid, C-ferulic acid dimer of example 1 and betaamyloid, D-ferulic acid and betaamyloid). After injection of […] sample to the celebral ventricle on each of 3 consecutive days, passive avoidance test on days 1 and 2, and Y-maze test on days 3 and 4 following the last injection were conducted. All data attained by the average mean of 10 mice each group.
Injection into the cerebral ventricle was performed according to the method described in Laursen & Belknap, J. Pharmacol. Methods. 1986, 16, 355. […]
In order to examine the learning and memory-retention ability of a mouse, a passive avoidance test was carried out in accordance with the method described in Song et al., J. Neurochem., 1998, 71, 875. […] Twenty-four hours after the training, the mouse was put in the light room again and the time it took to enter the dark room was measured as a passive avoidance time. The maximum restriction time was set at 300 seconds, i. e., in cases where the mouse took more than 300 seconds to enter the dark room, the passive avoidance time was determined to be 300 seconds.

Sprague-Dawley rats = assay: single-dose oral toxicity test in rats; format: in vivo, rat; settings: for LD50: oral, one time, in corn oil, observed 7 days
Procedure: Twenty female and twenty male Sprague-Dawley rats aged 4 weeks were divided into four groups including 5 female and 5 male rats, after being raised in a vivarium of temperature 22±3° C., relative humidity 50±10%, illumination 150–300 Lux for 1 week.
The ferulic acid dimers prepared in Example 1 was dissolved in corn oil, and the rats of 4 groups were orally administered with the solutions at a dose of 300, 1,000, 3,000 and 10,000 mg/kg one time. For 7 days after administration, changes of general symptoms and occurrence of death were observed. In addition, the rats were killed on day 7 after administration, dissected, and internal organs were examined with unaided eye. From the extract administration day, daily weight changes were measured and thus the weight decrease of animals attributed to ferulic acid dimers was observed.

cynuclein = assay: T7 phage display selection of human brain cDNA library proteins on immobilized ferulic acid (chemical genomics); format: binding; settings: screening repeated 3–4 times; identified by sequencing and BLAST
Source text: (§1) In order to study a functional mechanism of ferulic acid dimers, the present inventors conducted an experiment to screen from protein libraries proteins conjugatable with ferulic acid by use the method of chemical genomics. To this end, ferulic acid was immobilized onto a solid substrate and treated with T7 phages having proteins translated from a human brain and cDNA library on their surface to select the proteins bound to the immobilized ferulic acid. For selection of the proteins with the best affinity for ferulic acid, the screening procedure was repeated 3–4 times. Base sequencing of the cDNA selected allowed the amino acid sequences of the corresponding proteins to be inferred. […] Of the proteins thus identified, cynuclein and plasophylin attracted particular attention. These two proteins, known to be directly or indirectly associated with formation of intercelluar or intracelluar plaque, were therefore found to be inhibited from forming plaques by ferulic acid.

plasophylin = assay: as above; format: binding; settings: screening repeated 3–4 times; identified by sequencing and BLAST
Source text: as §1

mouse = settings: separated ferulic acid monomer administered to mouse; cited from earlier work

Row | Structure (SMILES) | step-through latency [1] | LD50 (Sprague-Dawley rats; females) | body weight (Sprague-Dawley rats; groups administered with 1,000 mg/kg or less) | LD50 (Sprague-Dawley rats; males) | pathological changes seen with naked eye on dissection (Sprague-Dawley rats; surviving animals, groups administered 1,000 mg/kg or less, day 7) | protein selected as bound to immobilized ferulic acid (cynuclein) | protein selected as bound to immobilized ferulic acid (plasophylin) | memory-retention ability of mouse (mouse)
1 | O=C(O)C=Cc1ccc(O)c(OCCOc2cc(C=CC(=O)O)ccc2O)c1 [Example 1, 1,2-[2-hydroxy-5-(2-carboxyvinyl)]phenoxyethane] | significantly higher | 2,804 mg/kg | not decreased | 3,722 mg/kg | No pathological changes |  |  | 
2 | COc1cc(/C=C/C(=O)O)ccc1O [ferulic acid, 4-hydroxy-3-methoxy cinnamic acid] |  |  |  |  |  | specifically bound | specifically bound | considerably increased

— patent US7005539B2, “Ferulic acid dimers and their pharmaceutically acceptable salts, their preparation and use thereof for treating dementia” (Korea Institute of Science and Technology, priority 2001, dated 2006)
